Measurements from patent publication US4118561A, “7-(Substituted)-7H-pyrrolo[3,2-f]quinazoline-1,3-diamines” (priority 1977, dated 1978).
≈ marks a conversion by molar mass, not a printed value. Like-named read-outs stand apart in the source and are kept apart here.

Tests used:
P. vulgaris 6896 = experiment: In vitro antibacterial activity (MIC), P. vulgaris 6896; conditions: Proteus vulgaris, 6896, 18 h
S. aureus Smith = experiment: In vitro antibacterial activity (MIC), S. aureus Smith; conditions: Staphylococcus aureus, 18 h
N. catarrhalis 8193 = experiment: In vitro antibacterial activity (MIC), N. catarrhalis 8193; conditions: 18 h
bacterial infections = experiment: Synergism with sulfamethoxazole against bacterial infections in mice, oral; assay type: in vivo
Experimental: The invention also provides compounds which will potentiate the antibacterial effects of sulfa drugs.
(§1) The test agents are weighed, suspended in 0.5% aqueous carboxymethyl cellulose, homogenized (glass tissue grinder) and diluted according to the design of the experiment. Mice (male, 18±1 g., CD-1 strain) are pre-weighed, pooled, infected at random intraperitoneally with a 0.5 ml. standardized suspension (LD95 ±5%) of the bacterial organism in 5% gastric mucin and treated at random with single doses of the test agents either at the time of infection or six hours after infecting. The treated groups consist of ten mice per dosage level. Deaths are recorded daily for 14 days and the PD50 (mice are treated at time of infection) and CD50 (mice are treated six hours after infecting) values are calculated by the method of Reed and Muench [Amer. J. Hyg., 27, 493 (1938)].

Proteus vulgaris 347 = experiment: In vivo antibacterial synergism (mouse), Proteus vulgaris 347; set-up: species or system Proteus vulgaris (infected mice, CD-1); conditions: mice, p.o.; for ED50: Proteus vulgaris, 347, po, 336 h; for PD50 SM/Cpd. (compound part): 0 hours; for PD50 SM/Cpd. (compound part) / CD50 SM/Cpd. (compound part): 20160 min; for CD50 SM/Cpd. (compound part): 6 hours
Experimental: as §1

Proteus mirabilis 190 = experiment: In vivo antibacterial synergism (mouse), Proteus mirabilis 190; set-up: species or system Proteus mirabilis (infected mice, CD-1); conditions: mice, p.o.; for ED50: Proteus mirabilis, 190, po, 336 h; for PD50 SM/Cpd. (compound part): 0 hours; for PD50 SM/Cpd. (compound part) / CD50 SM/Cpd. (compound part): 20160 min; for CD50 SM/Cpd. (compound part): 6 hours
Experimental: as §1

[1] = tested on: Plasmodium berghei KBG 173; experiment: Antimalarial blood schizonticidal test in mice; assay type: in vivo, Plasmodium berghei (infected ICR/HA Swiss mice); set-up: ΔMST (increase in mean survival time): unit: days; conditions: s.c.
Outline: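 ICR/HA Swiss mice (18–22 g) infected i.p. with 4 × 10^7 P. berghei KBG 173-parasitized cells; single subcutaneous dose in peanut oil at 72 h post-infection, graded dosages. Survival followed 60 days; 60-day survivors counted cured, deaths before day 6 counted toxic; mean survival time compared with untreated controls.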

K. pneumoniae 10031 = experiment: In vitro antibacterial activity (MIC), K. pneumoniae 10031; conditions: Klebsiella pneumoniae, 10031, 18 h
Proteus mirabilis 3 = experiment: In vivo antibacterial synergism (mouse), Proteus mirabilis 3; set-up: species or system Proteus mirabilis (infected mice, CD-1); conditions: mice, p.o.; for PD50 SM/Cpd. (compound part): 0 hours, 20160 min
Experimental: as §1

E. coli 9637 = experiment: In vitro antibacterial activity (MIC), E. coli 9637; conditions: Escherichia coli, 9637, 18 h
S. aureus 53-180 = experiment: In vitro antibacterial activity (MIC), S. aureus 53-180; conditions: Staphylococcus aureus, 53180, 18 h
Escherichia coli W-102 = experiment: In vivo antibacterial synergism (mouse), Escherichia coli W-102; set-up: species or system Escherichia coli (infected mice, CD-1); conditions: mice, p.o.; for PD50 SM/Cpd. (compound part): 0 hours; for PD50 SM/Cpd. (compound part) / CD50 SM/Cpd. (compound part): 20160 min; for CD50 SM/Cpd. (compound part): 6 hours
Experimental: as §1

[2] = treated 0 hours after infecting, read-out: PD50 (agent alone)
[3] = treated 6 hours after infecting, read-out: CD50 (agent alone)

N#Cc1ccc(Cn2ccc3c4c(N)nc(N)nc4ccc32)cc1 [Example 16, 7-[(4-cyanophenyl)methyl]-7H-pyrrolo[3,2-f]-quinazoline-1,3-diamine]
MIC (P. vulgaris 6896): 1.95 µg/mL (≈ 6.2 µM) | MIC (S. aureus Smith): 0.244 µg/mL (≈ 0.776 µM) | MIC (N. catarrhalis 8193): 7.6 ng/mL (≈ 0.0242 µM) | synergistic effect with sulfamethoxazole (bacterial infections): synergistic effect | ED50 (Proteus vulgaris 347; [2]): > 200 mg/kg | ED50 (Proteus vulgaris 347; [3]): > 400 mg/kg | PD50 SM/Cpd. (compound part) (Proteus vulgaris 347; with SM 0.78 mg. per kg.): > 12.5 mg. per kg. | PD50 SM/Cpd. (compound part) (Proteus vulgaris 347; with SM 1.56 mg. per kg.): > 12.5 mg. per kg. | PD50 SM/Cpd. (compound part) (Proteus vulgaris 347; with SM 3.13 mg. per kg.): 9.67 mg. per kg. | PD50 SM/Cpd. (compound part) (Proteus vulgaris 347; with SM 6.25 mg. per kg.): 6.25 mg. per kg. | CD50 SM/Cpd. (compound part) (Proteus vulgaris 347; with SM 3.11 mg. per kg.): 7.28 mg. per kg. | CD50 SM/Cpd. (compound part) (Proteus vulgaris 347; with SM 6.25 mg. per kg.): 8.83 mg. per kg. | CD50 SM/Cpd. (compound part) (Proteus vulgaris 347; with SM 12.5 mg. per kg.): 4.66 mg. per kg. | CD50 SM/Cpd. (compound part) (Proteus vulgaris 347; with SM 25 mg. per kg.): 5.07 mg. per kg. | ED50 (Proteus mirabilis 190; [2]): 18.6 mg/kg | ED50 (Proteus mirabilis 190; [3]): 159 mg/kg | PD50 SM/Cpd. (compound part) (Proteus mirabilis 190; with SM 0.39 mg. per kg.): > 12.50 mg. per kg. | PD50 SM/Cpd. (compound part) (Proteus mirabilis 190; with SM 0.78 mg. per kg.): 8.78 mg. per kg. | PD50 SM/Cpd. (compound part) (Proteus mirabilis 190; with SM 1.56 mg. per kg.): 3.39 mg. per kg. | PD50 SM/Cpd. (compound part) (Proteus mirabilis 190; with SM 3.11 mg. per kg.): 2.44 mg. per kg. | CD50 SM/Cpd. (compound part) (Proteus mirabilis 190; with SM 0.39 mg. per kg.): > 6.25 mg. per kg. | CD50 SM/Cpd. (compound part) (Proteus mirabilis 190; with SM 0.78 mg. per kg.): > 6.25 mg. per kg. | CD50 SM/Cpd. (compound part) (Proteus mirabilis 190; with SM 1.56 mg. per kg.): 4.0 mg. per kg. | CD50 SM/Cpd. (compound part) (Proteus mirabilis 190; with SM 3.11 mg. per kg.): 2.33 mg. per kg. | minimal effective dose ([1]; Plasmodium berghei, sc, 1440 h, single dose, 60-day survivors, read-out: Min. Curing Dose): 5 mg/kg | Cure/Treat at Min. Curing Dose ([1]; at the Min. Curing Dose, 60-day survivors): 1/5 | ΔMST (increase in mean survival time) ([1]; dose 10 mg. per kg.): 8.4 | MIC (K. pneumoniae 10031): 0.061 µg/mL (≈ 0.194 µM) | ED50 (Proteus mirabilis 3; Proteus mirabilis, 3, po, 336 h, treated 0 hours after infecting, read-out: PD50 (agent alone)): 22.7 mg/kg | PD50 SM/Cpd. (compound part) (Proteus mirabilis 3; with SM 0.78 mg. per kg.): 7.11 mg. per kg. | PD50 SM/Cpd. (compound part) (Proteus mirabilis 3; with SM 1.56 mg. per kg.): 6.56 mg. per kg. | PD50 SM/Cpd. (compound part) (Proteus mirabilis 3; with SM 3.13 mg. per kg.): 2.28 mg. per kg. | PD50 SM/Cpd. (compound part) (Proteus mirabilis 3; with SM 6.25 mg. per kg.): 2.11 mg. per kg. | MIC (E. coli 9637): 0.244 µg/mL (≈ 0.776 µM) | MIC (S. aureus 53-180): 0.122 µg/mL (≈ 0.388 µM) | ED50 (Escherichia coli W-102; Escherichia coli, W102, po, 336 h, treated 0 hours after infecting, read-out: PD50 (agent alone)): > 800 mg/kg | PD50 SM/Cpd. (compound part) (Escherichia coli W-102; with SM 3.13 mg. per kg.): 67.8 mg. per kg. | PD50 SM/Cpd. (compound part) (Escherichia coli W-102; with SM 6.25 mg. per kg.): 53.1 mg. per kg. | PD50 SM/Cpd. (compound part) (Escherichia coli W-102; with SM 12.5 mg. per kg.): 15.6 mg. per kg. | PD50 SM/Cpd. (compound part) (Escherichia coli W-102; with SM 25.0 mg. per kg.): 15.9 mg. per kg. | CD50 SM/Cpd. (compound part) (Escherichia coli W-102; with SM 12.5 mg. per kg.): 50 mg. per kg. | CD50 SM/Cpd. (compound part) (Escherichia coli W-102; with SM 25 mg. per kg.): 89 mg. per kg. | CD50 SM/Cpd. (compound part) (Escherichia coli W-102; with SM 50 mg. per kg.): 37 mg. per kg.
